Results taken from ChEMBL document CHEMBL5223094, “Recent advancements in chromone as a privileged scaffold towards the development of small molecules for neurodegenerative therapeutics” (RSC Med Chem, 2022).
Each block holds one compound with its values, some of them ahead of it.

Tests used:
[1] = molecular target: T1, Amine oxidase [flavin-containing] B (Homo sapiens, UniProt P27338); assay: Inhibition of recombinant human MAO-B using kynuramine as substrate preincubated for 10 mins followed by enzyme addition and measured after 20 mins by fluorescent microplate reader analysis
T1 sequence (P27338 whole entry): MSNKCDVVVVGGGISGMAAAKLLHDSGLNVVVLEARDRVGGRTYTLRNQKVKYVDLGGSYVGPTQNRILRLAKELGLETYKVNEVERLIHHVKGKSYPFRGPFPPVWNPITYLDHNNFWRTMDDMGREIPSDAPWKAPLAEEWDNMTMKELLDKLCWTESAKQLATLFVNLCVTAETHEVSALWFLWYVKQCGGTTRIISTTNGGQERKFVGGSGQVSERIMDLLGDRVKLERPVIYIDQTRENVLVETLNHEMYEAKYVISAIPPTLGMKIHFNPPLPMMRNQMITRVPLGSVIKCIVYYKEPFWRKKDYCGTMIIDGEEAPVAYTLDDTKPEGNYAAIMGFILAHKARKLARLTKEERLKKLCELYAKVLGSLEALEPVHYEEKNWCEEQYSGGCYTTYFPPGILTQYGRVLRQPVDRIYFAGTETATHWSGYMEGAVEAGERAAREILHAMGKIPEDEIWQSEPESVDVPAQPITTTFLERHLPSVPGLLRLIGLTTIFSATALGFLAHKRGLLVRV

[2] = molecular target: T2, Amine oxidase [flavin-containing] A (Homo sapiens, UniProt P21397); assay: Inhibition of recombinant human MAO-A using kynuramine as substrate preincubated for 10 mins followed by enzyme addition and measured after 20 mins by fluorescent microplate reader analysis
T2 sequence (P21397 whole entry): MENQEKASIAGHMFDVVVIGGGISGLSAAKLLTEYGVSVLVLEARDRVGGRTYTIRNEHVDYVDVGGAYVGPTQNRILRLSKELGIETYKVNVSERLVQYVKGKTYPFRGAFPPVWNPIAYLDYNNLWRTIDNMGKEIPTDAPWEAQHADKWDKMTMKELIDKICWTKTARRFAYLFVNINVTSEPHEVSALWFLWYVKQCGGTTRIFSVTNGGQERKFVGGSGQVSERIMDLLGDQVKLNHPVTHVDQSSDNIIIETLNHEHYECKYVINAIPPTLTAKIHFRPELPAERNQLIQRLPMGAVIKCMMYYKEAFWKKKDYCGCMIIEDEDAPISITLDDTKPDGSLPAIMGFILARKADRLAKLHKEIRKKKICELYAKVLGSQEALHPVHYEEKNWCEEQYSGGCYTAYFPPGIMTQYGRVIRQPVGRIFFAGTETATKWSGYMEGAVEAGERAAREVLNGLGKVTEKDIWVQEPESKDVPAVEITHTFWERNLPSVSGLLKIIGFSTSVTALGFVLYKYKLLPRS

[3] = molecular target: T2, Amine oxidase [flavin-containing] A; assay: Inhibition of MAO-A (unknown origin) by fluorescence spectrophotometer analysis
[4] = molecular target: T1, Amine oxidase [flavin-containing] B; assay: Inhibition of MAO-B (unknown origin) by fluorescence spectrophotometer analysis
[5] = molecular target: Beta-secretase 1 (Homo sapiens, UniProt P56817); assay: Inhibition of recombinant human BACE-1 expressed in baculovirus using Rh-EVNLDAEFK-Quencher as substrate incubated for 60 mins by FRET assay
[6] = molecular target: Amyloid-beta precursor protein (Homo sapiens) (UniProt P05067); assay: Inhibition of self-induced amyloid beta (1 to 42) (unknown origin) aggregation by ThT fluorometric assay; settings: concentration not given here
[7] = molecular target: T3, Cholinesterase (Homo sapiens, UniProt P06276); assay: Inhibition of BuChE (unknown origin)
[8] = molecular target: Amyloid-beta precursor protein (Homo sapiens) (UniProt P05067); assay: Inhibition of electric eel AChE-indued amyloid beta (1 to 42) (unknown origin) aggregation at 100 uM incubated for 24 hrs by ThT fluorometric assay
[9] = molecular target: Amyloid-beta precursor protein (Homo sapiens) (UniProt P05067); assay: Inhibition of self-induced amyloid beta (1 to 42) (unknown origin) aggregation at 10 uM incubated for 48 hrs by ThT fluorometric assay
[10] = molecular target: Cholinesterase (Equus caballus, UniProt P81908); assay: Inhibition of equine serum BuChE using butyrylthiocholine chloride as substrate preincubated for 15 mins followed by substrate addition by Ellman's method
[11] = molecular target: Acetylcholinesterase (Electrophorus electricus, UniProt O42275); assay: Inhibition of electric eel AChE using acetylthiocholine iodide as substrate preincubated for 15 mins followed by substrate addition by Ellman's method
[12] = species: Homo sapiens; assay: Selectivity index, ratio of IC50 for inhibition of MAO-B (unknown origin) to IC50 for inhibition of MAO-A (unknown origin)
[13] = molecular target: Amyloid-beta precursor protein (Homo sapiens) (UniProt P05067); assay: Inhibition of amyloid beta (unknown origin); settings: concentration not given here
[14] = molecular target: Amyloid-beta precursor protein (Homo sapiens) (UniProt P05067); assay: Inhibition of amyloid beta (1 to 42) (unknown origin) aggregation at 50 uM incubated for 24 hrs by ThT fluorometric assay
[15] = test system: SH-SY5Y; assay: Neuroprotective activity against 6-OHDA-induced cell death in human SH-SY5Y cells assessed as cell viability; type: functional, cell-based
[16] = molecular target: T4, Acetylcholinesterase (Homo sapiens, UniProt P22303); assay: Inhibition of AChE (unknown origin) using acetylthiocholine iodide as substrate preincubated for 20 mins followed by substrate addition by Ellman's method
[17] = molecular target: T3, Cholinesterase; assay: Inhibition of BuChE (unknown origin) using butyrylthiocholine iodide as substrate preincubated for 20 mins followed by substrate addition by Ellman's method
[18] = Antioxidant activity assessed as DPPH radical scavenging activity incubated for 45 mins by microplate spectrophotometric anlaysis; type: functional
[19] = molecular target: T4, Acetylcholinesterase; assay: Inhibition of recombinant human AChE using acetylthiocholine as substrate preincubated for 15 mins followed by substrate addition and measured after 5 mins by DTNB reagent based Ellman's method
[20] = Antioxidant activity assessed as DPPH radical scavenging activity; type: functional
[21] = molecular target: T5, Polyunsaturated fatty acid lipoxygenase ALOX15 (Homo sapiens, UniProt P16050); assay: Inhibition of LOX15 (unknown origin)
T5 sequence (P16050 whole entry): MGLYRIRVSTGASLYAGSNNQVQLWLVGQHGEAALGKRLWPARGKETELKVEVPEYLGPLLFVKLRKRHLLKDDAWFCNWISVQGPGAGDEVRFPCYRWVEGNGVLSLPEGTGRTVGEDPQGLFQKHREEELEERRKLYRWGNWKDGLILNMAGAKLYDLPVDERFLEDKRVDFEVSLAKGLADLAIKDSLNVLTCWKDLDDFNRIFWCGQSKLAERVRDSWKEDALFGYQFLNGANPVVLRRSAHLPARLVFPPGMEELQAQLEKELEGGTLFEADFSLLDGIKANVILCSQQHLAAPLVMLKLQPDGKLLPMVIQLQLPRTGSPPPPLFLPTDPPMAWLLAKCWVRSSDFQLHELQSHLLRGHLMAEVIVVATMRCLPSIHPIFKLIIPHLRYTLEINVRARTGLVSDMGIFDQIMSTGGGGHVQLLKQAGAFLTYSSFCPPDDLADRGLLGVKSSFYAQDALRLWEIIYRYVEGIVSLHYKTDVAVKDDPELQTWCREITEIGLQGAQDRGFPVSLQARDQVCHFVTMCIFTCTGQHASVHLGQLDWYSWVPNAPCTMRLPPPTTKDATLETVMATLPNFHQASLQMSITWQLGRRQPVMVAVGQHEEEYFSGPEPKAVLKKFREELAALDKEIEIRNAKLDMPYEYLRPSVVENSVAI

[22] = Inhibition of soybean LOX15 using arachidonic acid preincubated for 5 mins followed by substrate addition and measured after 5 mins by microplate spectrophotometric analysis; design: species or system Glycine max
[23] = molecular target: T6, Polyunsaturated fatty acid 5-lipoxygenase (Homo sapiens, UniProt P09917); assay: Inhibition of human LOX5 using arachidonic acid preincubated for 10 mins followed by substrate addition by microplate spectrophotometric analysis
T6 sequence (P09917 whole entry): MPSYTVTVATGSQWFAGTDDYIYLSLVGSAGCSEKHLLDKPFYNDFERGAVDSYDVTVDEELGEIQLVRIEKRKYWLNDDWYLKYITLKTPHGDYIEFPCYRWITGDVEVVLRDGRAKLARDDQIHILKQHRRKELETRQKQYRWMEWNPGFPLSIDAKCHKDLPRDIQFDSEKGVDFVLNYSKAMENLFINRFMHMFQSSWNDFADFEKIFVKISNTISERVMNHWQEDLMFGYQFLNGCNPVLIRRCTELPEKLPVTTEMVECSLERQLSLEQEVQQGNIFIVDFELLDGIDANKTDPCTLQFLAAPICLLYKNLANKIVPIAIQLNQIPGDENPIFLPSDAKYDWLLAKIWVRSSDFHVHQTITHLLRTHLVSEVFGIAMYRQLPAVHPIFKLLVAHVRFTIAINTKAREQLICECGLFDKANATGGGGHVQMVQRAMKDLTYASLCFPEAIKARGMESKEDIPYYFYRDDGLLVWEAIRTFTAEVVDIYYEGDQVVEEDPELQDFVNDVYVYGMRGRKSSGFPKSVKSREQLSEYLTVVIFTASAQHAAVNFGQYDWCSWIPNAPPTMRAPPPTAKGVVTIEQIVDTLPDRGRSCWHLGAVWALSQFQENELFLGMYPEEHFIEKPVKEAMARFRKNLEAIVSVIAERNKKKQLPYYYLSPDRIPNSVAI

[24] = molecular target: T3, Cholinesterase; assay: Inhibition of recombinant human BuChE using butyrylthiocholine as substrate preincubated for 15 mins followed by substrate addition and measured after 5 mins by Ellman's method
[25] = molecular target: T1, Amine oxidase [flavin-containing] B; assay: Inhibition of human MAO-B using tyramine as substrate preincubated for 10 mins followed by substrate addition and measured after 30 mins by fluorometric method
[26] = species: Homo sapiens; assay: Selectivity index, ratio of IC50 for inhibition of human MAO-B to IC50 for inhibition of human MAO-A

T3 sequence (P06276 whole entry): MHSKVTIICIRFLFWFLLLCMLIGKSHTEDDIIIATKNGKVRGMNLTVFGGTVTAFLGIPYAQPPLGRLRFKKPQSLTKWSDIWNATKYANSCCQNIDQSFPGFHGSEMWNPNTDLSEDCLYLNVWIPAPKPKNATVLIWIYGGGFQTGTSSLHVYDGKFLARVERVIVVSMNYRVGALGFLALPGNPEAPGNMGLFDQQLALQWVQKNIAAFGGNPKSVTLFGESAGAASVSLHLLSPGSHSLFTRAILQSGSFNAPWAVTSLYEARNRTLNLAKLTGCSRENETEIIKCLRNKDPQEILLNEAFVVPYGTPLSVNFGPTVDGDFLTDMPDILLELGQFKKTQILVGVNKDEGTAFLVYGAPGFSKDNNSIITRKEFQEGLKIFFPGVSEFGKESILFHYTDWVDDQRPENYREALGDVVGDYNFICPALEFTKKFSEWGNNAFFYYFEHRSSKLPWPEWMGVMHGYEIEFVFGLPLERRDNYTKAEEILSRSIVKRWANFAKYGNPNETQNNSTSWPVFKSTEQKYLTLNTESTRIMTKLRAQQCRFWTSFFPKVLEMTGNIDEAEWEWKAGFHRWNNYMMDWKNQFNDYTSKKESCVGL
Sequence of Amyloid-beta precursor protein (Homo sapiens) (P05067 whole entry): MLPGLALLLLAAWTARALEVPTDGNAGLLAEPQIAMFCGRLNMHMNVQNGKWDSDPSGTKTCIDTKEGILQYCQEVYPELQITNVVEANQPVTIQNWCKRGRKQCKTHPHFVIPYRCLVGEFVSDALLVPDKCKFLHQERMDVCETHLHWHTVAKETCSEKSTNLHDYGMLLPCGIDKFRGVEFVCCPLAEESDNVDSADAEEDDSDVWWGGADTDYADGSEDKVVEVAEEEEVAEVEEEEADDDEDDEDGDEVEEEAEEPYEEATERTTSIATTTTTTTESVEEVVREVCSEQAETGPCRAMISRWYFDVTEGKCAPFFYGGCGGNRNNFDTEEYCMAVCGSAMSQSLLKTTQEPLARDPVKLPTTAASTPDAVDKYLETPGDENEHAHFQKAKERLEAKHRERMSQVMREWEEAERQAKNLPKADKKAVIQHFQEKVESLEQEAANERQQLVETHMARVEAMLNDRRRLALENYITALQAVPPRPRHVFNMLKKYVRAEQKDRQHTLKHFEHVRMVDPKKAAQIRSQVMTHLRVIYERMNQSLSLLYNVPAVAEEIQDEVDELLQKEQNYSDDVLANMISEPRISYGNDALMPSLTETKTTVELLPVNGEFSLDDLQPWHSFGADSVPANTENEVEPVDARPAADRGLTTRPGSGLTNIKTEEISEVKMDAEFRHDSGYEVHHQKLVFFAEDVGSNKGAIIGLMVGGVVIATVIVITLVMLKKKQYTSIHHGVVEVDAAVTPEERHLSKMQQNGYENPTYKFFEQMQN
T4 sequence (P22303 whole entry): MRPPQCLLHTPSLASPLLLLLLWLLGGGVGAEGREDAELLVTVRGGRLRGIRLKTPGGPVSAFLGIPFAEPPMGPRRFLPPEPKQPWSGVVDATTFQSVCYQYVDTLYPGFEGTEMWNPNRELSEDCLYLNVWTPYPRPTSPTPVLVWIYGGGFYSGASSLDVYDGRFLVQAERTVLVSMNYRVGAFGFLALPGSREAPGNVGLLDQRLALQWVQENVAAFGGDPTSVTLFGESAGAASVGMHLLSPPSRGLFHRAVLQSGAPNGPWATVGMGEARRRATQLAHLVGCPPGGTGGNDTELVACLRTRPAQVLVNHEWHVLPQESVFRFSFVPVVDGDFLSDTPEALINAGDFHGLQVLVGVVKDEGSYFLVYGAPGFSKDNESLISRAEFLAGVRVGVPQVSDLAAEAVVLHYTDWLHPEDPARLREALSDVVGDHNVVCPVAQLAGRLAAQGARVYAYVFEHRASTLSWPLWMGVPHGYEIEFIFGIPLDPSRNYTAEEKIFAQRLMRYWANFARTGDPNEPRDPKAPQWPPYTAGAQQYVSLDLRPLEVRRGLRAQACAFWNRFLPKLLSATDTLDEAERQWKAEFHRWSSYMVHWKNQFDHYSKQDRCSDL
Sequence of Acetylcholinesterase (Electrophorus electricus, UniProt O42275) (O42275 whole entry): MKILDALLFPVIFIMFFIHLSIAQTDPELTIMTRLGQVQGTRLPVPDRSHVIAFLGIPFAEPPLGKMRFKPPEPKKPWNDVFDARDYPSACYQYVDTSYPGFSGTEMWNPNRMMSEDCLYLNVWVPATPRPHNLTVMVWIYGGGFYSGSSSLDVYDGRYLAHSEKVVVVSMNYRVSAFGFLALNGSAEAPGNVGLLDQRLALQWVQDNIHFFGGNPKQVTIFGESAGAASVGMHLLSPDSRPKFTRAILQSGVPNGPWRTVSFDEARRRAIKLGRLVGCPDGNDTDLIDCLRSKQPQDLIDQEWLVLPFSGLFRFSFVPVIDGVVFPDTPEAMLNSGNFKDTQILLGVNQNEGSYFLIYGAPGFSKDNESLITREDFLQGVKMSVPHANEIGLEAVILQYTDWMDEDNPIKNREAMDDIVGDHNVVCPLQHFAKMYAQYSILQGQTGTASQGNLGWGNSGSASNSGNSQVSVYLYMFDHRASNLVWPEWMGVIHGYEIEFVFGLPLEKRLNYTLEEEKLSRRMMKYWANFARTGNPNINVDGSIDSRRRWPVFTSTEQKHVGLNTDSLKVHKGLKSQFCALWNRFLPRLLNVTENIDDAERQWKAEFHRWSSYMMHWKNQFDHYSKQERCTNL
Sequence of Cholinesterase (Equus caballus, UniProt P81908) (P81908 whole entry): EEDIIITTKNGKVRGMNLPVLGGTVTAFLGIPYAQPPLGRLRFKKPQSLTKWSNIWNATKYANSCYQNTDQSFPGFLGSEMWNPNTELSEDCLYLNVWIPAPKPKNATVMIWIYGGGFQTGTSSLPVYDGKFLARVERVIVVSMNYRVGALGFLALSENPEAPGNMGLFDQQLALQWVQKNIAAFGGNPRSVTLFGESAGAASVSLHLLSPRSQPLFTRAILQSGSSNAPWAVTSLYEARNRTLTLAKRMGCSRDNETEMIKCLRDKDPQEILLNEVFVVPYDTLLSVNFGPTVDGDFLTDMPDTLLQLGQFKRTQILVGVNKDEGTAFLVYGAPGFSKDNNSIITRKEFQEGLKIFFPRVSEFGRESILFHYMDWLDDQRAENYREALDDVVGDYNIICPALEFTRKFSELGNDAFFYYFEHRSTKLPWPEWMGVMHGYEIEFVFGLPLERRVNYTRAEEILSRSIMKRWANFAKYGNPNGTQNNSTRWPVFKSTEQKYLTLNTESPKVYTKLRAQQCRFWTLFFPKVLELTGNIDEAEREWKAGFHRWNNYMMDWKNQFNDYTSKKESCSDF
Sequence of Beta-secretase 1 (P56817 whole entry): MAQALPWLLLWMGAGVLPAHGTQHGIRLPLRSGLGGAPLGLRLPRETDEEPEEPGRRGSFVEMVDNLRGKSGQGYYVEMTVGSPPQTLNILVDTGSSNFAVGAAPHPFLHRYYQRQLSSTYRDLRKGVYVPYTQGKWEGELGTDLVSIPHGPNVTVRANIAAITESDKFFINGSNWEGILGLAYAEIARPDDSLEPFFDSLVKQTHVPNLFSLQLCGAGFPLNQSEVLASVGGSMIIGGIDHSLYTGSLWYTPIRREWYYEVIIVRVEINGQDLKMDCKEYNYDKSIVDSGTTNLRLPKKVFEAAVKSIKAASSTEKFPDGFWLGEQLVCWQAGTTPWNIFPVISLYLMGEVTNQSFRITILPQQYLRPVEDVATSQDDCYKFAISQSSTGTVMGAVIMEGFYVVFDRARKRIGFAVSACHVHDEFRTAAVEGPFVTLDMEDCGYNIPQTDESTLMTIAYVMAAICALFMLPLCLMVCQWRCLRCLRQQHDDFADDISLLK

IC50 [1]: 0.63 µM
IC50 [2]: 0.32 µM
Structure (SMILES): COc1ccc2oc(-n3ccc4ccccc43)cc(=O)c2c1

IC50 [3]: 1.6 µM
IC50 [4]: 2.1 µM
Structure (SMILES): O=c1cc(-c2ccc(Cl)cc2)oc2ccc(Cn3cc(Nc4ccc(F)cc4)nn3)cc12

IC50 [5]: 16 µM
Structure (SMILES): COc1ccc(-c2oc3cc(Br)c(I)cc3c(=O)c2O)cc1

Structure (SMILES): O=C(CCCCC1CCSS1)NCc1cn(CCCCOc2ccc3c(=O)ccoc3c2)nn1 (stereo unspecified)
inhibition [6]: 13%
IC50 [7]: 8 µM

Structure (SMILES): CCc1cc[n+](CCCOc2ccc3c(=O)cc(-c4ccc(OC)cc4)oc3c2)cc1
inhibition [8]: 37%
inhibition [9]: 32%
IC50 [10]: 0.7 µM
IC50 [11]: 3 µM

Ratio IC50 [12]: > 14
Structure (SMILES): O=c1cc(-c2ccc(Cl)cc2)oc2ccc(Cn3cc(Oc4cccc(O)c4)nn3)cc12

inhibition [13]: 80.4%
inhibition [14]: 80%
Structure (SMILES): COc1cccc2oc3c(c(=O)c12)[C@@H](O)CC3

Structure (SMILES): COCOc1cc2occ(-c3ccc(OC)cc3)c(=O)c2c2c1CC(O)C(C)(C)O2 (stereo unspecified)
EC50 [15]: 0.5 µM

Structure (SMILES): O=c1c(O)c(-c2ccccc2)oc2cc(Br)c(I)cc12
IC50 [16]: 10 µM
IC50 [17]: 6 µM

Structure (SMILES): COc1ccc(-c2cc3cc4c(=O)c(C=O)coc4cc3o2)cc1
IC50 [18]: 18 µM
IC50 [19]: 10 µM
IC50 [20]: 18.1 µM
IC50 [21]: 9.6 µM
IC50 [22]: 10 µM
IC50 [23]: 15 µM
IC50 [24]: 5 µM

IC50 [25]: 0.1 µM
Ratio IC50 [26]: 324
Structure (SMILES): COc1ccc(NC(=O)c2c(OCc3ccccc3)ccc3c(=O)c(C)c(C)oc23)cc1
